Results reported in patent US4798807A, “Monoclonal antibodies and method for detecting dioxins and dibenzofurans” (priority 1986, dated 1989).

Tests used:
monoclonal antibody DD-6 = assay: Competition ELISA with monoclonal antibody DD-6; assay type: binding, Biozzi mice; conditions: competitor vs monoclonal antibody DD-6; plate coated with A-triCDD-RSA
Experimental: (§1) In this case the hybridomas were then screened for their ability to distinguish A-triCDD-BSA and A-triCDD-RSA from BSA and RSA. On the basis of this initial screen about 25 stable, antibody-producing colonies were isolated, subcloned, and frozen. The remaining clones were again screened for their abilities to recognize free TCDD in suspension. Experimentally, on the order of 10-100 nanograms of TCDD in hexane was dried, 0.5 ml of saline with BSA (1 mg/ml) was added and sonificated for 2 hrs. […] Identical procedures were followed for other dioxin isomers. A dilution series in microtiter plate wells was then made with the suspended TCDD, antibody adde, and the competition ELISA completed. Competition ELISA test procedures are discussed in detail in the following reference: Butt, W. R. (1984) "Practical Immunoassay: The State of the Art", Marcel Dekker, Inc., N.Y., N.Y.
(§2) A large part of the success that we have had in characterizing the binding specificities of our monoclonal antibodies comes from having developed a reliable competition ELISA protocol. Our preferred assay starts from stock solutions at 10 ppm in hexane of the various compounds listed in Table I. 10 μl of hexane solution is aliquoted into a small vial, evaporated under a stream of nitrogen gas, and 500 μl of a 1 mg/ml solution of BSA in phosphate buffered saline with 0.1% BSA is added. The vial is capped and placed in an ultrasonic cleaning waterbath for two hours. Two hours of sonification gives a more reproducible assay than does an hour. During the sonification, the hexane appears to evaporate completely, and one is left with an aqueous solution containing the dioxin. Microtiter plates coated with A-triCDD-RSA are blocked with a three percent solution of ovalbumin and a two-fold dilution series of sonificated dioxin-BSA is then made, covering the range 100 ppb-0.1 ppb. In each well of the plate 100 μl of the sonificated dioxin-BSA solution is mixed with n equal volume of antibody. The antibody partitions between the dioxin adsorbed to the BSA, and the A-tri-CDD-RSA on the plate.
(§3) A-TriCDD-RSA was adsorbed onto the surface of the wells of a microtiter plate. The various competitors listed were suspended in saline containing bovine serum albumin (BSA). These solutions were made by sonificating 10 μl of dioxin solution in hexane with 500 μl of saline-BSA. A dilution series of these dioxin-BSA solutions was then made covering the range of 100-0.2 ppb, and placed in the microtiter plate wells. An equal volume of DD-1 monoclonal antibody was then added, and allowed to react for 1 hour. Tne antibody binds either to the A-TriCDD-RSA on the plate or the dioxin in solution. After the hour, the solution phase is removed, the plate washed, and it is reincubated for an hour with peroxidase-conjugated goat-anti-mouse-immunoglobulins. A second washing is then done, and substrate (ABTS) added to the peroxidase. The enzyme-antibody conjugate and substrate function as a "developer", allowing the visualization of the DD-1 bound to the A-triCDD-RSA on the plate. Results are then expressed as a fraction of the response in wells with no competitor. […] At about 20 ppb of 2,3,7,8-TCDD the relative ELISA response is half of control, meaning that half the DD-1 antibody bound to the solution phase dioxin and half bound to the A-triCDD-RSA on the plate. For 1,2,3,7(8)-TCDD, 50% inhibition occurs at about 4 ppb, indicating the DD-1 prefers 1,2,3,7(8)-TCDD to 2,3,7,8-TCDD.
(§4) The FIGURE and Table II show representative competition data using several chlorinated compounds as competitors. From such data, one can determine the concentration required to inhibit antibody binding by 50% (I50). Table II lists the I50 for all compounds tested with the antibodies. In reporting these values, factors of two are about the limit of significance. […] The binding specificities of these antibodies are highly desirable, since they prefer the most toxic of the dioxin and dibenzofuran isomers.

monoclonal antibody DD-1 = assay: Competition ELISA with monoclonal antibody DD-1; assay type: binding, Biozzi mice; conditions: for I50 (inhibits antibody binding by 50%): competitor vs monoclonal antibody DD-1, plate coated with A-triCDD-RSA
Experimental: as §1, §2, §3, §4

monoclonal antibody DD-3 = assay: Competition ELISA with monoclonal antibody DD-3; assay type: binding, BALB/c mice; conditions: competitor vs monoclonal antibody DD-3; plate coated with A-triCDD-RSA
Experimental: as §1, §2, §3, §4

monoclonal antibody DD-4 = assay: Competition ELISA with monoclonal antibody DD-4; assay type: binding, BALB/c mice; conditions: for I50 (inhibits antibody binding by 50%): competitor vs monoclonal antibody DD-4, plate coated with A-triCDD-RSA
Experimental: as §1, §2, §3, §4

[1] = test system: monoclonal antibodies DD-1, DD-3, DD-4, DD-5 and DD-6; assay: Competition ELISA, statements for all antibodies together; assay type: binding, BALB/c and Biozzi mice
Experimental: as §1, §2, §3, §4

monoclonal antibody DD-5 = assay: Competition ELISA with monoclonal antibody DD-5; assay type: binding, Biozzi mice; conditions: competitor vs monoclonal antibody DD-5; plate coated with A-triCDD-RSA
Experimental: as §1, §2, §3, §4

| Compound | I50 (inhibits antibody binding by 50%) (monoclonal antibody DD-6) [ng] | reaction of DD-1 with competitor (monoclonal antibody DD-1; FIGURE, DD-1, 100-0.2 ppb) | I50 (inhibits antibody binding by 50%) (monoclonal antibody DD-1) [ng] | I50 (inhibits antibody binding by 50%) (monoclonal antibody DD-3) [ng] | I50 (inhibits antibody binding by 50%) (monoclonal antibody DD-4) [ng] | reactivity of all antibodies with competitor ([1]; up to the highest concentration tested (100 ppb)) | I50 (inhibits antibody binding by 50%) (monoclonal antibody DD-5) [ng] | reactivity of DD-4 with competitor (monoclonal antibody DD-4; DD-4) | affinity / recognition by all antibodies ([1]; all antibodies) |
| --- | --- | --- | --- | --- | --- | --- | --- | --- | --- |
| Clc1c(Cl)c(Cl)c2c(c1Cl)Oc1c(Cl)c(Cl)c(Cl)c(Cl)c1O2 [Octachloro-DD, octachlorodibenzodioxin] | > 200 | does not react | > 200 | > 200 | > 200 | either do not react or react only marginally | > 10 | – | – |
| 1,2,3,6(7),7(8),8(9)-hexa-CD[ | > 200 | – | > 200 | > 200 | > 200 | – | > 10 | some reactivity | – |
| O=C1C2(Cl)C3(Cl)C4(Cl)C(Cl)(Cl)C5(Cl)C3(Cl)C1(Cl)C5(Cl)C24Cl (stereo not shown) [Kepon] | > 2000 | – | > 2000 | > 2000 | > 2000 | – | > 2000 | – | – |
| Oc1c(Cl)c(Cl)c(Cl)c(Cl)c1Cl [Pentachlorophenol] | > 2000 | – | > 2000 | > 2000 | > 2000 | – | > 2000 | – | – |
| O=C(O)COc1cc(Cl)c(Cl)cc1Cl [2,4,5-Trichlorophenoxyacet, 2,4,5-Trichloro-phenoxyacet] | 2700 | – | 2000 | > 2000 | > 2000 | – | > 2000 | – | – |
| Clc1ccc(-c2c(Cl)cc(Cl)c(Cl)c2Cl)c(Cl)c1Cl [2,2',3,3',4,4',6-Hepta-CBP] | > 200 | – | > 200 | > 200 | > 200 | – | > 10 | – | – |
| ClC1C(Cl)C(Cl)C(Cl)C(Cl)C1Cl (stereo not shown) [BHC] | > 2000 | – | 300 | > 2000 | > 2000 | – | > 2000 | – | – |
| O=[N+]([O-])c1cc(Cl)cc(Cl)c1O [2,4-Dichloro-6-nitrophenol, 2,4-Dichloro-6-nitro-phenol] | > 2000 | – | > 2000 | > 2000 | > 2000 | – | > 2000 | – | – |
| Oc1cc(Cl)c(Cl)cc1O [4,5-Dichlorocatechol] | > 2000 | – | 2000 | > 2000 | > 2000 | – | > 2000 | – | – |
| Clc1cc(-c2cc(Cl)c(Cl)c(Cl)c2Cl)c(Cl)c(Cl)c1Cl [2,2',3,3',4,4',5,5'-Octa-CBP] | > 200 | – | > 200 | > 200 | > 200 | – | > 10 | – | – |
| ClC1=C(Cl)C2(Cl)C3C(Cl)C=CC3C1(Cl)C2(Cl)Cl (stereo not shown) [Heptachlor] | > 2000 | – | > 2000 | > 2000 | > 2000 | – | > 2000 | – | – |
| Oc1ccc(Cl)cc1Cl [2,4-Dichlorophenol] | > 2000 | – | 2000 | > 2000 | > 2000 | – | > 2000 | – | – |
| Clc1ccc(-c2cc(Cl)c(Cl)c(Cl)c2Cl)c(Cl)c1 [2,2',3,4,4',5-Hexa-CBP] | > 200 | – | > 200 | > 200 | > 200 | – | > 10 | – | – |
| Clc1ccc(Cl)c(-c2c(Cl)c(Cl)c(Cl)c(Cl)c2Cl)c1 [2,2',3,4,5,5',6-Hepta-CBP] | > 200 | – | > 200 | > 200 | > 200 | – | > 10 | – | – |
| Clc1cc(Cl)c2c(c1)Oc1cc(Cl)c(Cl)cc1O2 [1,3,7,8-TCDD] | 1 | – | 0.2 | 0.15 | > 2 | – | – | – | highest affinity |
| Clc1cc(Cl)c(-c2ccccc2Cl)c(Cl)c1 [2,2',4,6-TCBP] | > 200 | – | > 200 | > 200 | > 200 | – | > 10 | – | – |
| Nc1c(Cl)ccc2c1Oc1cc(Cl)c(Cl)cc1O2 [1-amino-2,7,8-TriCDD] | 0.02 | – | 0.2 | > 0.04 | > 0.01 | – | > 0.02 | – | – |
